The record followed here is US5468728A, “Use of orally absorbable motilin preparations to enhance motility of digestive tract” (Sanwa Kagaku Kenkyusho Co., Ltd., priority 1991, dated 1995).

This assay deals with intestinal tracts. Briefly: Contraction of the intestinal tracts in dogs by the balloon method, intravenous and nasal administration. The class given is in vivo. The text has this: L-leucine-13-motilin (A) and L-leucine-13-motilin-homoserin (B) were administrated to dogs through an intravenous route ([…]) by the ballon method to determine their activities on the contraction of the intestinal tracts, and the action of the surface active agent on promoting the absorption of the active substances administrated through a nasal administration was estimated in terms of percentage relative to the activity--100%-- of L-leucine-13-motilin administrated through an intravenous route on the contraction.
L-leucine-13-motilin-homoserine and L-leucine-13-motilin were each dissolved in purified water to prepare an aqueous solution, which was then aseptically poured into a vial in such a way that it contained the active substance in an amount of 1 mg when calculated as polypeptide. Each vial was finally sealed together and freeze-dried. For use, this vial is dissolved in physiological saline for injection.

Setting [1] is: Intravenous Administration (2.0 μg/kg/hr).
The mark [2] stands for this setting: Nasal Administration (100 μg/kg/hr), Control = injection preparation without surface active agent.

With L-leucine-13-motilin [A], the “activity on the contraction of the intestinal tracts, percentage relative to L-leucine-13-motilin intravenous (100%)” value reads like this: under setting [1], 100 ± 0%; under setting [2], “No activity found”.
The corresponding values for L-leucine-13-motilin-homoserine [B] are 115 ± 5% and not above 30%.
